The values that follow come from patent US6403630B1, “Treating cancers associated with overexpression of HER-2/neu” (Cornell Research Foundation, Inc., priority 1999, dated 2002).

For experiment [1], the system named is HER-2/neu positive breast cancer. Briefly: Adjuvant therapy of a patient with HER-2/neu positive breast cancer. Format: in vivo, human. Here is the method: A patient with HER-2/neu positive breast cancer is treated with Celebrex® for adjuvant therapy at an oral dose of 400 mg twice a day for five years after a mastectomy. […] The same result is obtained when the Celebrex® is replaced with an oral dose of 50 mg per day of Vioxx® for five years.
The patient also received an oral dose of 400 mg Celebrex® twice daily for one year or an oral dose of 50 mg Vioxx® daily for one year.

Experiment [2] concerns HER-2/neu positive breast cancer that has metastasized. Briefly: Treatment of a patient with metastasized HER-2/neu positive breast cancer. The experiment is classed as in vivo, human. The method, then:
Breast cancer is determined to have metastasized to lung and liver three years after a mastectomy is performed on a patient with HER-2/neu positive breast cancer. The patient is treated with oral doses of Celebrex® of 400 mg twice a day or of Vioxx® of 50 mg per day.
After three months, the Celebrex® or Vioxx® was continued in combination regimen with Taxol® at a dose of 175 mg/m^2 administered intravenously every three weeks.
Breast cancer is determined to have metastasized to bone nine years after a mastectomy is performed on a patient with HER-2/neu positive breast cancer.
After 90 days, oral cyclophosphamide at a dose of 3 mg/kg/day and doxoribicin administered intravenously weekly at a dose of 20 mg/m^2, are added to the drug regimen.

In experiment [3] the test system is HER-2/neu positive colon cancer. Briefly: Treatment of a patient after resection of HER-2/neu positive colon cancer. The experiment is classed as in vivo, human. The conditions noted are these: cancer localized to bowel wall, oral Celebrex 400 mg twice a day or Vioxx 50 mg per day for five years. Here is the method: A patient undergoes resection of colon cancer which proves to be HER-2/neu positive. The colon cancer is found to be localized to the bowel wall; there is no evidence of extracolonic cancer. The patient is treated with Celebrex® at oral dose of 400 mg twice a day for five years or an oral dose of Vioxx® at 50 mg per day for five years.

The test system of the next experiment is COX-2 in 184B5/HER cells. Briefly: Amounts of COX-2 in 184B5/HER cells after treatment with MAP kinase inhibitors. The experiment is classed as cell-based, human. An excerpt: The cells used were 184B5 and 184B5/HER cell lines. They were obtained from a collaborator. The 184B5 cell line is an immortalized but nontumorogenic human breast epithelial cell line that was established from a reduction mammoplasty and is described in Stampfer, M. R., et al., Proc. Natl. Acad. Sci. USA 82, 2394-2398 (1985). The 184B5/HER cell line was derived by stably transfecting 184B5 cells with a mutationally activated human HER-2/neu oncogene; these cells form rapidly growing tumors when injected into athymic nude mice. The 184B5/HER cell line is described in Pierce, J. H., et al., Oncogene 6, 1189-1194(1991). Cells were maintained in MEM (from Life Technologies, Inc. of Grand Island, N.Y.)—KBM, i.e., kerotinocyte basal medium (from Clonetics Corp. of San Diego, Calif.), mixed in a ratio of 1:1. […]
Western blotting was carried out to determine whether the differences in PGE2 production were related to differences in amounts of COX enzymes. […] The protein concentration of the supernatant was measured as described in Lowry, O. H., et al., J. Biol. Chem. 193, 265-275 (1951). […]
The activity of p44/42 MAP kinase was measured using a nonradioactive method where the assay was performed with a p44/42 MAP kinase activity kit obtained from New England Biolabs (of Beverly, Mass.) using the manufacturer's instructions. […]

[4] abbreviates: adjuvant therapy alone, oral, five years after a mastectomy (Celebrex 400 mg twice a day; Vioxx 50 mg per day).
Where [5] appears, read: adjuvant therapy with HERCEPTIN (250 mg IV loading, 10 weekly 125 mg IV), oral Celebrex 400 mg twice daily or Vioxx 50 mg daily for one year.
[6] abbreviates: metastasized to bone, after failure of prior chemotherapy, oral Celebrex 400 mg twice a day or Vioxx 50 mg per day plus HERCEPTIN
[7] abbreviates: metastasized to bone, after 90 days oral cyclophosphamide 3 mg/kg/day and weekly IV doxorubicin 20 mg/m^2 added to the COX-2 inhibitor plus HERCEPTIN regimen.
[8] abbreviates: metastasized to lung and liver, after three months continued in combination with Taxol 175 mg/m^2 IV every three weeks.
Where [9] appears, read: metastasized to lung and liver, oral Celebrex 400 mg twice a day or Vioxx 50 mg per day alone.

As for `Cc1ccc(-c2cc(C(F)(F)F)nn2-c2ccc(S(N)(=O)=O)cc2)cc1` [Celebrex®, 4-[5-(4-Methylphenyl)-3-(trifluoromethyl)-1H-pyrazol-1-yl]benzenesulfonamide], the “Recurrence of breast cancer” value in experiment [1] (setting [4]) and in experiment [1] (setting [5]) was “does not occur” in each case. Moreover, the tumor burden result in experiment [2] (setting [6]) was “reduced tumor burden”; in experiment [2] (setting [7]), “still further reduced tumor burden”; in experiment [2] (setting [8]), “further reduced tumor burden”; in experiment [2] (setting [9]), “reduced tumor burden”. Further, in experiment [3], the “Recurrence of colon cancer” value is “does not occur”.

`COc1cccc(-c2cc(=O)c3ccccc3o2)c1N` [PD 98059, 2′-amino-3′-methoxyflavone]: the “amounts of COX-2” value in the experiment with COX-2 in 184B5/HER cells was “decrease”.

Take `Oc1ccc(-c2nc(-c3ccc(F)cc3)c(-c3ccncc3)[nH]2)cc1` [SB 202190, 4-(4-fluorophenyl)-2-(4-hydroxyphenyl)-5-(4-pyridyl)-1H-imidazole]: the “amounts of COX-2” value in the experiment on COX-2 in 184B5/HER cells was “down-regulated”.

Take `CS(=O)(=O)c1ccc(C2=C(c3ccccc3)C(=O)OC2)cc1` [Vioxx®, 3-(Phenyl)-4-(4-(methylsulfonyl)phenyl)-2-(5H)-furanone]: the “Recurrence of breast cancer” value in experiment [1] (setting [4]) and in experiment [1] (setting [5]) was “does not occur” throughout. The tumor burden result in experiment [2] (setting [6]) is listed as “reduced tumor burden”; in experiment [2] (setting [7]), “still further reduced tumor burden”; in experiment [2] (setting [8]) it was “further reduced tumor burden”; in experiment [2] (setting [9]) it was “reduced tumor burden”. Further, the “Recurrence of colon cancer” value in experiment [3] is “does not occur”.
